For orientation: T/C means the result in the treated group divided by that in the control group, in per cent. The IC50 is the concentration that inhibits the measured activity by half. A high value points to lower potency.

The test system of one assay is MCF7. The assay is described as follows: Antiproliferative activity on human MCF7 cells at 5 to 20 uM assessed as ratio of T/C measured up to 144 hrs relative to control. Type of assay: functional. The note with it: dose 5-20 µM.
A short description of assay [1]: Antiproliferative activity on human MCF7/TAMR-1 cells at 10 uM assessed as ratio of T/C measured up to 144 hrs relative to control. It counts as functional, MCF-7/TAMR-1.
The target in another assay is T1, Estrogen receptor (Homo sapiens, UniProt P03372).
T1 sequence (P03372 whole entry): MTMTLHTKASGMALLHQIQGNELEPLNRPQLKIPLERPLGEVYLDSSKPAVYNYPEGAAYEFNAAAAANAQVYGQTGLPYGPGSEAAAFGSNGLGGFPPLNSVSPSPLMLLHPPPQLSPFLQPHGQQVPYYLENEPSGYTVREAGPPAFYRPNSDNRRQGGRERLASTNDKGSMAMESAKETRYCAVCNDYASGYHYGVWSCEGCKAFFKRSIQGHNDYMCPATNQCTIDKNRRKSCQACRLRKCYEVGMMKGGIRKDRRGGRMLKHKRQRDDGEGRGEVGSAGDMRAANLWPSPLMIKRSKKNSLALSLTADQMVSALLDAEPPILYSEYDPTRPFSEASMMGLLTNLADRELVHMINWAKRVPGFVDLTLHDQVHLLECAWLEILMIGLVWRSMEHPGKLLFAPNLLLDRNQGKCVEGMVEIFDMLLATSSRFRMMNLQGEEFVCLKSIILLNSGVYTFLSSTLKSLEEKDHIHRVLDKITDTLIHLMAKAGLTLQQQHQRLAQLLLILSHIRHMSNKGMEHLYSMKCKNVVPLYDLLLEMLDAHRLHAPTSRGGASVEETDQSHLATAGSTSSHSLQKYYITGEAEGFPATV

Description for Estrogen receptor: Antagonist activity at ERalpha (unknown origin) assessed as inhibition of fluorescein-labeled PGC-1 coactivator recruitment incubated for 30 mins measured by TR-FRET assay

With `C[C@]12CC[C@@H]3c4ccc(O)cc4C[C@@H](CCCCCCCCC[S+]([O-])CCCC(F)(F)C(F)(F)F)[C@H]3[C@@H]1CC[C@@H]2O` (stereo partly specified) [FULVESTRANT], the T/C in the assay on MCF7 is recorded as 30%. With `CCC(=C(c1ccc(O)cc1)c1ccc(/C=C/C(=O)NCCCNC(=O)CCCn2c(=S)[nH]c3ccccc3c2=O)cc1)c1ccccc1` (mixture of isomers), in assay [1], the T/C stood at 40%. The same measure, in the same setting: the same measure for `CCC(=C(c1ccc(O)cc1)c1ccc(/C=C/C(=O)NCCCCCCNC(=O)CCc2nc3cc(O)ccc3[nH]2)cc1)c1ccccc1` (mixture of isomers): 40%; for `CCC(=C(c1ccc(O)cc1)c1ccc(/C=C/C(=O)NCCCCCCNC(=O)CCc2nc3cc(OC)ccc3[nH]2)cc1)c1ccccc1` (mixture of isomers): 40%. `CCC(=C(c1ccc(O)cc1)c1ccc(/C=C/C(=O)NCCCCCNC(=O)CCc2nc3cc(O)ccc3[nH]2)cc1)c1ccccc1` (mixture of isomers) came in with an IC50 at Estrogen receptor of 0.125 µM. As to `CCC(=C(c1ccc(O)cc1)c1ccc(/C=C/C(=O)NCCCNC(=O)c2ccc(N3CCN(C(=O)CCCn4c(=S)[nH]c5ccccc5c4=O)CC3)cc2)cc1)c1ccccc1` (mixture of isomers), the T/C in assay [1] was determined as 40%.

The values are drawn from ChEMBL document CHEMBL5053487 (J Med Chem, 2021).
